Reference: the supplement of paper PMC10307832

Assays:
Experiment in all cases: relative viability (nuclei count vs DMSO), 5 days (fraction); higher = more cells survive
Tosedostat + Navitoclax = compound: CC(C)C[C@@H](C(=O)N[C@H](C(=O)OC1CCCC1)c1ccccc1)[C@H](O)C(=O)NO [Tosedostat] + CC1(C)CCC(c2ccc(Cl)cc2)=C(CN2CCN(c3ccc(C(=O)NS(=O)(=O)c4ccc(N[C@H](CCN5CCOCC5)CSc5ccccc5)c(S(=O)(=O)C(F)(F)F)c4)cc3)CC2)C1 [Navitoclax] (partner 0.5 µM)
Procedure, shortened: (§1)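 One day after seeding in 1536-well plates, lung cancer cell lines were dosed by pin tool. Dosing was either single-drug or a fixed anchor-drug dose plus five library-drug doses (not always all listed) in √10 steps. After 5 days, nuclei were stained in one fix-and-stain step and counted on 4× images, and relative viability is the nuclei count of treated wells over that of vehicle wells, given as the median of duplicate plates.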

[1] = compound: CC1=NN=C(O1)C2=NN=C(C=C2)N3CCC(CC3)OC4=C(C=CC(=C4)F)Cl + Cc1cc(Nc2cc(N3CCN(C)CC3)nc(Sc3ccc(NC(=O)C4CC4)cc3)n2)n[nH]1 [Tozasertib] (partner 0.1 µM)
Procedure, shortened: as §1

[2] = compound: CC1=NN=C(O1)C2=NN=C(C=C2)N3CCC(CC3)OC4=C(C=CC(=C4)F)Cl + N=C(N)NC(=N)NCCc1ccccc1 [Phenformin] (partner 250 µM)
Procedure, shortened: as §1

[3] = compound: CC1=NN=C(O1)C2=NN=C(C=C2)N3CCC(CC3)OC4=C(C=CC(=C4)F)Cl + Nc1ncn([C@H]2C[C@H](O)[C@@H](CO)O2)c(=O)n1 [Decitabine] (partner 2 µM)
Procedure, shortened: as §1

Q: What does the source list for UMC-11?
A: relative viability (Tosedostat + Navitoclax; first compound 0.02 µM): 0.343; relative viability (Tosedostat + Navitoclax; first compound 0.06325 µM): 0.309; relative viability (Tosedostat + Navitoclax; first compound 0.2 µM): 0.323; relative viability (Tosedostat + Navitoclax; first compound 0.6325 µM): 0.322; relative viability (Tosedostat + Navitoclax; first compound 2 µM): 0.287; relative viability ([1]; first compound 0.253 µM): 0.181; relative viability ([1]; first compound 0.8 µM): 0.184; relative viability ([1]; first compound 2.53 µM): 0.192; relative viability ([1]; first compound 8 µM): 0.169; relative viability ([2]; first compound 0.253 µM): 0.288; relative viability ([2]; first compound 0.8 µM): 0.291; relative viability ([2]; first compound 2.53 µM): 0.263; relative viability ([2]; first compound 8 µM): 0.263; relative viability ([3]; first compound 0.253 µM): 0.517; relative viability ([3]; first compound 0.8 µM): 0.517; relative viability ([3]; first compound 2.53 µM): 0.507; relative viability ([3]; first compound 8 µM): 0.466
